Where only a bound is given, the exact number is not on record here.

Our source for the melting point values is a melting point compilation (Tetko et al.; mined from patent text by program, amines drawn as free bases though some values may be those of a salt).

In general, melting point refers to the temperature, or range, at which the solid turns liquid.

In turn, `OCCCSc1ccc2nccn2n1` yielded a melting point of 108 to 109 °C. `Cc1ccnc(C=NNC(N)=S)c1N` displayed a melting point of 227 to 228 °C. As for `CN1CCC(C2c3sccc3CCn3ncnc32)CC1` (stereo not given), the figure is 123 °C; as for `C=C(C)C(=O)NCC(=O)Nc1cc(Cl)c(C)c(Cl)c1O`, 217 to 218 °C.

For the molecule `O=C(NC(=O)c1c(F)cccc1F)Nc1cc(C(F)(F)F)cc(C(F)(F)F)n1`, the melting point amounted to 152 °C. As for `CC(C)n1nc(-c2c(NC3CC3)nc(N)nc2-c2ccccc2)ccc1=O`, the figure is 237 to 239 °C; as for `CC(C)=CC(=O)N[C@H]1CC[C@H](CCN2CCN(c3nccc4c3CCO4)CC2)CC1`, 164 °C; as for `O=C(O)C(CSc1nc2ccccc2[nH]1)CS(=O)(=O)c1ccc(-c2ccc(Cl)cc2)cc1` (stereo not given), 176 to 179 °C. The value for `COc1ccc2c(c1)C(Oc1ccccc1)=C(C(=O)O)S2=O` (stereo not given) was 204 to 206 °C; that for `COCC(=O)Nc1c(Cl)c(Cl)cc2nc(OC)c(OC)nc12` was 171 to 173 °C; that for `Cc1ccc2c(-c3ccccc3)onc2c1` was 77.8 °C. As for `O=c1[nH]c2ccccc2n1Cc1ccccc1`, the figure is 194 °C; as for `Cn1cc(OC(=O)c2ccccc2)c(=O)c2cccc(F)c21`, 179 to 181 °C; as for `CCOC(=O)c1cn(Cc2ccccc2)nc1NC(=O)NC(C)(C)C`, 130 to 131 °C. The molecule `CCCCCCCCCCCCC(=O)c1c[nH]c(C2(OC)OCCSSO2)c1` (stereo not given) gave a melting point of 77 to 78 °C. `CCCNC(=O)NS(=O)(=O)c1ccccc1-c1ccc(Cn2c(CCC)nc(C)c2C(=S)OCC)cc1`: the melting point lay in the range of 160 to 165 °C. The value for `OCC1=Cc2cc(Cl)ccc2Sc2sccc21` was 117 to 120 °C. The molecule `Nc1ccccc1NC(=O)c1ccc(NC(=O)Cc2ccccc2)cc1` came in with a melting point of 232 to 237 °C. As for `Cc1cc(-n2ccnc2)c2cccc(OCc3c(Cl)ccc(S(=O)(=O)N4CCC[C@H]4C(=O)NCC4CCN(CCCO)CC4)c3Cl)c2n1`, the figure is 90 °C; as for `CN(C)Cc1ccc(CSCCNC2=NS(=O)N=C2N)o1` (stereo not given), 139 to 142 °C; as for `CCN1CCCC1CNC(=O)c1sc(CO)c(C)c1OC` (stereo not given), 118 to 119 °C. Turning to `O=C(CCCCCCC(c1ccccc1)(c1ccccc1)c1ccccc1)NO`, the melting point was 100 to 103 °C. As for `CSc1c[nH]c2cccc([N+](=O)[O-])c12`, the figure is 123 to 124 °C.

With `OCC1OC(Oc2ccsc2Cc2ccc(OC(F)(F)F)cc2)C(O)C(O)C1O` (stereo not given), the melting point was 144 to 145 °C. As for `CC(=O)NCCN1CCc2ccc3c(c21)CCCO3`, the melting point fell in the range of 91 to 93 °C.

As for `O=C1CCCCCC1C(c1ccc(Cl)cc1)[N+](=O)[O-]` (racemic), the melting point lay within 77 to 78 °C.

Consider `CCOC(=O)c1c(NCC(=O)c2ccccc2Cc2ccccc2)c2c(Cl)cc(Cl)cc2n1C(=O)OC(C)(C)C`, for which the melting point came to 163 °C. Take `O=C(N[C@@H]1CN(C2CCCCC2)C[C@H]1O)c1ccc([N+](=O)[O-])cc1` (relative stereo): the melting point lay in the range of 156 to 157 °C. As for `CN(C)Cc1nc(-c2ncn3c2C2CCCN2C(=O)c2c(Cl)cccc2-3)no1` (stereo not given), the figure is 261 °C.

Turning to `Cn1c(-c2ccccc2)c2c(c(C#N)c1=O)-c1ccccc1C2=O`, the melting point lay within 255 to 256 °C. Turning to `CC(C)Cc1ccc([N+](=O)[O-])cc1C#N`, the melting point was found to be 73 °C. As for `CS(=O)c1ccc(C2=CC(=O)C(C)(C)O2)cc1` (stereo not given), the figure is 108 to 109 °C; as for `Cn1c(C(=O)c2ccc(F)cc2)cc2cc(Br)ccc21`, 162 to 164 °C.

Molecule `O=C(CC1CCC1)N[C@H]1CC[C@H](CCN2CCN(c3nccc4c3CCO4)CC2)CC1` came in with a melting point of 193 °C. As for `CC(c1cc(F)ccc1O)c1cc(Cl)cc(C(C)c2cc(F)ccc2O)c1O` (stereo not given), the figure is 224 °C.

For the molecule `CCOC(=O)/C=C/c1cnn(Cc2ccccc2)c1-c1ccccc1`, the melting point fell in the range of 62 to 63 °C.

In turn, `Cn1nnc(-c2cccc(N)c2)n1` had a melting point of 97 °C. Consider `O=C(NCc1cccnc1)Nc1cc(N2CC(c3ccccc3)CC2=O)ccn1` (stereo not given), for which the melting point fell in the range of 179 to 180 °C.

`COc1cc(C(=O)CCC(=O)c2cc(OC)c(OC)c(OC)c2)cc(I)c1OCc1ccccc1` came in with a melting point of 134 to 135 °C. `COC(=O)/C=C/c1ccc2c(c1)nc(N)c1ncn(CC(C)(C)O)c12` displayed a melting point above 250 °C. As to `O=C(Cc1ccc2c(c1)OCO2)N[C@H]1CC[C@H](CCN2CCN(c3nccc4c3CCO4)CC2)CC1`, the melting point was 212 °C. As for `CSc1nc(NC2CCCCC2)c2ccnc-2[nH]1`, the figure is 189 to 190 °C.

Turning to `Cc1ccccc1Cc1cccc(-c2ncc3c(n2)CCOC3)n1`, the melting point was 132 to 133 °C. As for `CC(C)c1cccc(C(C)C)c1NC(=O)CCCCCSc1nc2cnccc2[nH]1`, the figure is 96 to 98 °C; as for `c1cncc(-n2cnnn2)c1`, 74 to 76 °C.

For `Cc1ccc(NC(=O)Nc2ccc(-c3c(Cc4ccccc4)sc4ncnc(N)c34)cc2)cc1`, the melting point lay within 169 to 173 °C. The value for `O=C(O)COC1Cc2sc(S(=O)(=O)C(c3ccccc3F)c3ccccc3F)nc2-c2ccccc21` (stereo not given) was 204 to 208 °C. Take `COc1nc(-c2ccc(C(=O)O)cc2)cc2cccnc12`: the melting point was above 300 °C.

`CCCCCCCCC1(C)SC(=O)C=C1OCC(=O)Nc1ccc(OC)cc1` (stereo not given) yielded a melting point of 99 °C. The value for `O=C(O)c1cc(Cl)cc([N+](=O)[O-])c1NCc1ccccc1Cl` was 160 to 161 °C.

Consider `COc1ccc(C2Cc3c(cccc3C(F)(F)F)NC(=O)C2CO)cc1` (stereo not given), for which the melting point lay within 189 to 190 °C. As for `COC(=O)c1ccc(-c2nc(-c3ccc(OC(F)(F)F)cc3)cs2)cc1`, the figure is 138 to 139 °C; as for `COc1ccc(CCN2C=CC=C3C2=Nc2cc(C(F)(F)F)ccc2S(=O)(=O)N3C)cc1`, 43 to 44 °C; as for `CSC(=NC#N)NCCCOc1cccc(CN2CCCC2)c1`, 107 to 108 °C. As for `CCCCOc1ccc(CC(C)C(=O)Oc2ccc(-c3ccc(C#N)cc3)cc2)cc1` (stereo not given), the figure is 76.1 to 77.1 °C; as for `CN1CCC(c2c[nH]c3ccc(NC(=O)c4cc5ccccc5s4)nc23)CC1`, 202 to 204 °C. The value for `Nc1ccc2ccc(OCCN3CCOCC3)nc2n1` was 164 °C; that for `c1ccc2cc(NC3=NCC4(CN5CCC4CC5)O3)ncc2c1` (stereo not given) was 196 to 200 °C. As to `O=C(O)C(CC1CCCC1)c1ccc(S(=O)(=O)C2CCCC2)cc1` (stereo not given), the melting point lay in the range of 165 to 167 °C. The value for `Cc1cc(C#N)cc2c(=O)oc(-c3cc(Br)nn3-c3ncccc3Cl)nc12` was 263 to 267 °C. As for `Cc1ccc(C(=O)Nc2ccc(N3CCCCC3)c(C(F)(F)F)c2)cc1Nc1nccc(-c2cccnc2)n1`, the figure is 201 to 202 °C; as for `Cc1oc(-c2ccccc2)nc1Cc1cc2cc(N)ccc2o1`, 162 °C; as for `Cc1ccccc1C1(n2ccnc2)c2ccccc2-c2sccc21` (stereo not given), 75 °C. The value for `COC(C)(C)O[C@H]1C(=O)N[C@H]1c1ccccc1` was 136 to 137 °C; that for `Cc1cc(CC(=O)N[C@H]2CC[C@H](CCN3CCC(c4cccc5c4CCO5)CC3)CC2)on1` was 188 °C. As for `C[C@@H](Cc1c2n(c3cc(F)c(O)cc13)CCC2)NC(=O)OC(C)(C)C`, the melting point was in the range of 198 to 199 °C. As for `CNC(=O)c1cnn(-c2ccc(Cl)cc2Cl)c1C#N`, the figure is 182 to 183 °C; as for `C1CCCCN2CCOCCOCCN(CCC1)CCOCCOCC2`, 90 to 91 °C; as for `CC(=O)N[C@H]1C[C@H](C)N(C(=O)OC(C)(C)C)C1`, 108 to 110 °C. The value for `CCNC(=O)CCCC1CCN(Cc2cnc3c(C)c(NC(=O)c4ccc(-c5ccc(F)cc5)cc4)ccc3c2)CC1` was 217 to 220 °C; that for `O=S1N=C(NCCCOc2cccc(CN3CCCCC3)c2)C(NCc2cccnc2)=N1` (stereo not given) was 140 to 143 °C.

Turning to `NS(=O)(=O)c1cc2c(s1)SCCNC2=O`, the melting point was above 270 °C. The value for `CC(=O)OCn1c(C(=O)OC(C)C)nc(Cl)c1Cl` was 81 to 82 °C; that for `COc1ccc(-c2nc(C(F)(F)F)[nH]c2-c2ccc(S(C)(=O)=O)cc2)cc1F` was 228 to 234 °C. On to `O=C(O)c1c(Br)cc(OCc2ccccc2)cc1OCc1ccccc1`, for which the melting point was 90 to 91 °C. The value for `CC(C)(C)OC(=O)N1CCC(C(=O)c2ccccc2)CC1` was 91 to 93 °C. As for `CC(=O)Nc1cccc2c1C(=O)c1c-2n[nH]c1-c1ccc(O)cc1`, the figure is above 300 °C; as for `CCOC(=O)CCNC(=O)c1oc2cc(-c3ccc(Cn4c(C)nc5ccccc54)cc3)ccc2c1C`, 196 to 197 °C; as for `COc1c(O)cc(C)c(OC(=O)c2ccccc2)c1OC`, 109 to 111 °C. As for `CCOC(=O)c1cc(SC#N)c(-c2ccc(Cl)cc2)[nH]1`, the melting point lay in the range of 138 to 141 °C. The value for `Cc1ccc(CN2CCC(OC(=O)c3ccc(C)cc3)CC2)cc1` was 66 to 77 °C; that for `Oc1ccc(Oc2ncc(Cl)cc2F)cc1` was 90 to 92 °C. The value for `CCc1cccc(CC)c1NC(=O)Nc1oc2ccc(C)cc2c1-c1ccccc1Cl` was 214 to 215 °C; that for `CC(CC(=O)O)CC(=O)c1ccc(N2CCC(c3ccccc3)CC2)cc1` (stereo not given) was 134 to 135 °C; that for `COC(=O)Cc1ccccc1[C@@H]1O[C@H]1c1ccccc1` (relative stereo) was 118 to 119 °C. The value for `O=C(O)COc1ccc([N+](=O)[O-])c(C(F)(F)F)c1` was 92 to 95 °C. The molecule `CN(C)CCOc1ccc(-c2cccc(N)n2)c2ccccc12` came in with a melting point of 98 to 106 °C. `Cn1c(Sc2ccccc2)c(C=NO)c(=O)n(C)c1=O` gave a melting point of 152 °C. The value for `CCCCNC(=O)NS(=O)(=O)c1c(SC)cccc1SC` was 151 to 154 °C. The value for `COc1ccc(C(NC(C)=O)C(=O)c2ccc(Cl)cc2)cc1` (stereo not given) was 140 °C.
